The record followed here is patent publication US20110086834A1, “ALKYNYL ALCOHOLS AS KINASE INHIBITORS” (AMGEN INC., priority 2008, published 2011).

T1 sequence (Q99558 400-655 limits assumed): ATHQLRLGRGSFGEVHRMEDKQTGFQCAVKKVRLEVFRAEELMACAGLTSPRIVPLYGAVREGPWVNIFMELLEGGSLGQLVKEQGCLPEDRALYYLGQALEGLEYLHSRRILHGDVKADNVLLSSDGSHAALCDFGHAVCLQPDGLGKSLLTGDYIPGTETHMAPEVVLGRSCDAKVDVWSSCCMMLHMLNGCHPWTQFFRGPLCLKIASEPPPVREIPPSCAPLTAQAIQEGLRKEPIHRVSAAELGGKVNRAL

The test concerns the target T1, NIK (Homo sapiens, UniProt Q99558).
T1 construct: Both assays utilize a truncated form of NIK containing only the catalytic domain; made in house; host or cells: baculovirus expression system (insect cells implied)
Briefly: homogenous time resolved fluorescence (HTRF) assay for NIK Ki measurement. The format is biochemical. Particulars: truncated NIK (catalytic domain only), autophosphorylation; 10 nM enzyme; 20, 100, 200 or 500 μM ATP; room temperature, 2 hours; read-out: Ki activity in the homogenous time resolved fluorescence (HTRF) assay for NIK.
Turning to `CC(O)(C#Cc1ccc2c(c1)N(c1nc(N)ncc1Cl)CC21CCCOC1)c1nccs1` (stereo not shown) [Example 248, 4-(1-(2-Amino-5-chloro-4-pyrimidinyl)-1,2,5′,6′-tetrahydro-4′H-spiro[indole-3,3′-pyran]-6-yl)-2-(1,3-thiazol-2-yl)-3-butyn-2-ol], the Ki is less than 1000 nM. For `CNc1nccc(-c2c[nH]c3ccc(C#CC4(O)CCCC4)cc23)n1` [Example 111, 1-(2-(3-(2-(methylamino)pyrimidin-4-yl)-1H-indol-5-yl)ethynyl)cyclopentanol], the Ki was less than 1000 nM. The result for `COCCN(C)C1CCn2c1c(-c1ccncn1)c1cc(C#CC(C)(O)c3nccs3)ccc12` (stereo not shown) [Example 105, 4-(1-((2-methoxyethyl)(methyl)amino)-9-(pyrimidin-4-yl)-2,3-dihydro-1H-pyrrolo[1,2-a]indol-7-yl)-2-(thiazol-2-yl)but-3-yn-2-ol] reads less than 1000 nM; that for `COc1ccc(Nc2cc(-n3ccc4ccc(C#CC5(O)CCCC5)cc43)ncn2)cc1` [Example 260, 1-((1-(6-((4-(methyloxy)phenyl)amino)-4-pyrimidinyl)-1H-indol-6-yl)-ethynyl)-cyclopentanol], 1000 to 30000 nM; that for `Cc1ccsc1C(C)(O)C#Cc1ccc2c(c1)N(c1ccnc(N)n1)CC2` (stereo not shown) [Example 278, 4-(1-(2-Amino-4-pyrimidinyl)-2,3-dihydro-1H-indol-6-yl)-2-(3-methyl-2-thienyl)-3-butyn-2-ol], less than 1000 nM. Consider `Cn1cc(-c2nc(N)ncc2Cl)c2cc(C#CC(C)(O)c3nccs3)ccc21` (stereo not shown) [Example 116, 4-(3-(2-amino-5-chloropyrimidin-4-yl)-1-methyl-1H-indol-5-yl)-2-(thiazol-2-yl)but-3-yn-2-ol], for which the Ki is less than 1000 nM. Under `C[C@@](O)(C#Cc1ccc2ncc(-c3nc(N)ncc3Cl)n2c1)c1nccs1` [Example 296, (2R)-4-(3-(2-amino-5-chloro-4-pyrimidinyl)imidazo[1,2-a]pyridin-6-yl)-2-(1,3-thiazol-2-yl)-3-butyn-2-ol] stands less than 1000 nM; under `COCCOc1cnc(N)nc1-c1c[nH]c2ccc(C#CC(O)(c3cccc(F)c3)C(F)(F)F)cc12` (stereo not shown) [Example 236, 4-(3-(2-Amino-5-(2-methoxyethoxy)-4-pyrimidinyl)-1H-indol-5-yl)-1,1,1-trifluoro-2-(3-fluorophenyl)-3-butyn-2-ol], 1000 to 30000 nM.

On to `CC(O)(C#Cc1ccc2[nH]nc(-c3ccns3)c2c1)c1nccs1` (stereo not shown) [Example 83, 4-(3-(isothiazol-5-yl)-1H-indazol-5-yl)-2-(thiazol-2-yl)but-3-yn-2-ol], for which the Ki was less than 1000 nM. With `CC(=O)Nc1cc(C#CC2(O)CCCC2)cc2c1CCN2c1nc(N)ncc1Cl` [Example 19, N-(1-(2-amino-5-chloropyrimidin-4-yl)-6-(2-(1-hydroxycyclopentyl)ethynyl)indolin-4-yl)acetamide], the Ki is less than 1000 nM. `CC(O)(C#Cc1ccc2c(c1)N(c1ccnc(N)n1)CC2)c1cccs1` (stereo not shown) [Example 273, 4-(1-(2-Amino-4-pyrimidinyl)-2,3-dihydro-1H-indol-6-yl)-2-(2-thienyl)-3-butyn-2-ol]: the Ki is less than 1000 nM. Under `Nc1ncc2c(n1)-c1c(nc3ccc(C#CC4(O)CCCC4)cn13)CCC2` [Example 249, 1-((2-amino-6,7-dihydro-5H-pyrido[1″,2″:1′,2′]imidazo[4′,′:6,7]cyclohepta[1,2-d]pyrimidin-11-yl)ethynyl)cyclopentanol] stands less than 1000 nM; under `Nc1ncc(Cl)c(-c2c[nH]c3ccc(C#CC4(O)CCCCC4)cc23)n1` [Example 109, 1-(2-(3-(2-amino-5-chloropyrimidin-4-yl)-1H-indol-5-yl)ethynyl)cyclohexanol], less than 1000 nM; under `C[C@@](O)(C#Cc1ccc2[nH]c(C(=O)N3CCOCC3)c(-c3ccncn3)c2c1)c1nccs1` [Example 91, (5-((R)-3-hydroxy-3-(thiazol-2-yl)but-1-ynyl)-3-(pyrimidin-4-yl)-1H-indol-2-yl)(morpholino)methanone], less than 1000 nM. Turning to `CC(O)(C#Cc1ccc(CN2CCOCC2)c(Nc2nc(N)ncc2Cl)c1)c1nccs1` (stereo not shown) [Example 157, 4-(3-(2-Amino-5-chloropyrimidin-4-ylamino)-4-(morpholinomethyl)phenyl)-2-(thiazol-2-yl)but-3-yn-2-ol], the Ki was less than 1000 nM. Consider `Cn1ccc(C(C)(O)C#Cc2ccc3c(c2)N(c2nc(N)ncc2Cl)CC3)n1` (stereo not shown) [Example 26, 4-(1-(2-amino-5-chloropyrimidin-4-yl)indolin-6-yl)-2-(1-methyl-1H-pyrazol-3-yl)but-3-yn-2-ol], for which the Ki was less than 1000 nM. Take `Nc1ncc(F)c(N2CC3(CCOCC3)c3ccc(C#CC4(O)CCCC4)cc32)n1` [Example 206, 1-((1-(2-Amino-5-fluoro-4-pyrimidinyl)-1,2,2′,3′,5′,6′-hexahydrospiro[indole-3,4′-pyran]-6-yl)ethynyl)cyclopentanol]: the Ki is less than 1000 nM.

As for `OC1(C#Cc2ccc3[nH]nc(-c4ccns4)c3c2)CCCC1` [Example 97, 1-(2-(3-(isothiazol-5-yl)-1H-indazol-5-yl)ethynyl)cyclopentanol], the Ki is less than 1000 nM. With `Nc1ncc(Cl)c(N2CC3(CS(=O)(=O)C3)c3ccc(C#CC4(O)CCCC4)cc32)n1` [Example 212, 1-((1-(2-Amino-5-chloro-4-pyrimidinyl)-1′,1′-dioxido-1,2-dihydrospiro[indole-3,3′-thietan]-6-yl)ethynyl)cyclopentanol], the Ki is less than 1000 nM. The result for `Cc1ccc(C#CC(C)(O)c2nccs2)cc1Nc1nc(N)ncc1Cl` (stereo not shown) [Example 160, 4-(3-(2-Amino-5-chloropyrimidin-4-ylamino)-4-methylphenyl)-2-(thiazol-2-yl)but-3-yn-2-ol] reads less than 1000 nM. Consider `CN1CCC2(CC1)CN(c1nc(N)ncc1Cl)c1cc(C#CC(C)(O)c3nccs3)ccc12` (stereo not shown) [Example 282, 4-(1-(2-Amino-5-chloro-4-pyrimidinyl)-1′-methyl-1,2-dihydrospiro[indole-3,4′-piperidin]-6-yl)-2-(1,3-thiazol-2-yl)-3-butyn-2-ol], for which the Ki was less than 1000 nM. Under `CC(O)(C#Cc1ccc2c(c1)N(c1nc(N)ncc1Cl)CC2)c1ncc(CO)s1` (stereo not shown) [Example 8, 4-(1-(2-amino-5-chloropyrimidin-4-yl)indolin-6-yl)-2-(5-(hydroxymethyl)thiazol-2-yl)but-3-yn-2-ol] stands less than 1000 nM; under `Nc1ncc(Cl)c(-c2cn(C(=O)C3CC3)c3ccc(C#CC4(O)CCCC4)cc23)n1` [Example 121, (3-(2-amino-5-chloropyrimidin-4-yl)-5-(2-(1-hydroxycyclopentyl)ethynyl)-1H-indol-1-yl)(cyclopropyl)methanone], less than 1000 nM. As to `Cc1cc(C(C)(O)C#Cc2ccc3c(c2)N(c2nc(N)ncc2Cl)C[C@@]32CCOC2)no1` (single isomer, unassigned) [Example 203, 4-((3R*)-1′-(2-Amino-5-chloro-4-pyrimidinyl)-1′,2′,4,5-tetrahydrospiro[furan-3,3′-indol]-6′-yl)-2-(5-methyl-3-isoxazolyl)-3-butyn-2-ol], the Ki is less than 1000 nM. As for `CC(O)(C#Cc1ccc2c(c1)N(c1ccncc1Cl)CC2(C)C)c1ncco1` (stereo not shown) [Example 314, 4-(1-(3-chloro-4-pyridinyl)-3,3-dimethyl-2,3-dihydro-1H-indol-6-yl)-2-(1,3-oxazol-2-yl)-3-butyn-2-ol], the Ki is less than 1000 nM.
